Experimental data as given in a melting point compilation (Tetko et al.; mined from patent text by program, amines drawn as free bases though some values may be those of a salt).

Structure (SMILES)	melting point [°C]
CC(=O)c1ccc2oc3nc(N)c(C(=O)O)cc3c(=O)c2c1	> 300
O=[N+]([O-])c1ccc(SSc2ncccn2)c(C(Cl)(Cl)Cl)c1	98 to 99
CCC(=O)NC1=NN(c2ccccc2)C(c2ccc(C)cc2)C1 (stereo not given)	124 to 125
Cc1cc(Oc2c(Cl)cc(C(F)(F)F)cc2Cl)nn1C(=O)NC(C)(C)C	116 to 117
Cc1nccn1-c1cccc(C2=Nc3cc(O)c(-c4ccc(F)cc4)cc3NC(=O)C2)c1	260
COc1c(C)c(C)c(OC)c(C(CCCC(=O)O)c2cccnc2)c1C (stereo not given)	82 to 84
CC(O)c1ccccc1-c1ccc(C(=O)N2Cc3ccc(C(=O)NCc4cccnc4)n3Cc3ccccc32)cc1 (single isomer, unassigned; (-))	118
COc1ccc(-c2nc(C)cc(Cl)n2)cc1	80 to 81
CC1=Nc2c(C)nn(C)c2C2=NC(C)CN12 (stereo not given)	169 to 172
COC(=O)c1c2c(c3c(C)c(OC)c(OC)c(OC)c3c1-c1ccc(OC)c(OC)c1)OCOC2=O	84 to 85
CCOP(=O)(/C=C/c1cn(-c2ccccc2)nc1NC)OCC	132 to 133
Cc1c(N2C[C@H](CF)[C@H](N)C2)c(F)cc2c(=O)c(C(=O)O)cn(C3CC3)c12	160 to 165
N#Cc1cnn(CCCl)c1N	156
Nc1nc(Nc2ccccc2)c2ncn(C3CC(F)C(CO)O3)c2n1 (stereo not given)	193 to 194
Cc1nccc(C#N)c1OC1SCC(O)C(O)C1O (stereo not given)	161
O=C1CCc2cc3[nH]c(-c4ccncc4)nc3cc2N1	285 to 288
O=C1c2ccccc2-n2cnc(-c3cccc(Cl)c3)c2[C@@H]2CCCN12	242 to 243
CCOC(=O)C1=C(C)NC(=S)N(C(=O)OCC)C1c1ccccc1[N+](=O)[O-] (stereo not given)	130 to 132
C=CCOc1ccc(-c2ccc(C(=O)O)cc2)cc1	360
O=Cc1cn(Cc2ccc3cc(OCc4ccccc4)ccc3c2)cc1-c1ccccc1	140 to 141
CC(C)N1C(=O)NC(c2ccc3c(c2)CCC3)c2cc3c(cc21)OCO3 (stereo not given)	146 to 148
Cn1ncc(/C=C/C(=O)Nc2ccc(CNC(=O)c3ccccc3)cc2)c1-c1ccc(F)cc1	250 to 251
Cc1ccccc1C(=O)Nc1ncc([N+](=O)[O-])s1	228 to 230
CC(=O)CCCC(=O)NC(CC(=O)C(=O)C(C)(Cc1c[nH]c2ccccc12)NC(=O)OC1C2CC3CC(C2)CC1C3)c1ccccc1 (stereo not given)	69 to 71
Nc1ncc(-c2cccnc2)cc1[N+](=O)[O-]	226 to 228

Structure (SMILES)	melting point [°C]
CNS(=O)(=O)c1ccc(Nc2cc(-n3ccc(C(F)(F)F)n3)c3ccccc3n2)cc1	220 to 222
CCC(=O)NC(C)(C)COc1cccc2nc(C)c(C(=O)O)c(N)c12	189 to 193
Cc1cc(OCC2CO2)c2cc(C(=O)N(C)C)[nH]c2c1 (stereo not given)	197 to 204
C/C=C/c1c(N)nc(-c2ccc(Cl)c(OC)c2F)nc1C(=O)OC	133 to 135
CCOC(=O)CCc1cn(Cc2ccc(OCc3csc(-c4ccccn4)n3)cc2)cc1-c1ccccc1	81 to 82
O=C(C[C@H](C(=O)N[C@H](CO)Cc1ccccc1)n1cc(-c2ccc(-c3ccccc3)cc2)cn1)OCc1ccccc1	116 to 117
O=Cc1cccc(-c2ccco2)n1	46 to 48
CC(=O)OC1OCC[C@@H]1NC(=O)[C@H](CC(C)C)NC(=O)OCc1ccccc1 (stereo not given in full)	158 to 159
O=C(c1cccnc1)N1CCC(c2ccccc2F)=N1	89 to 91
CCCc1c(OCC(O)CNc2cccc(N)c2C#N)ccc(C(C)=O)c1O (stereo not given)	111 to 114
N=C(NO)c1ccc(-c2ccc(-c3ccc(C(=N)NO)o3)o2)cc1	205 to 206
COC(=O)NNC(=O)c1n[nH]c2cc(OC)c(OC)cc12	235
COC(=O)Cc1cc(N)n(-c2ccccn2)n1	84 to 85
COC1=CC(=O)NCC1	115 to 117
N#CCCC(CCC(=O)O)(c1ccccc1)c1ccccc1	119 to 120
O=[N+]([O-])c1ccc(C(O)C(CO)[N+](=O)[O-])cc1 (stereo not given)	105 to 107
COc1ccc2c(c1)c(CC(=O)OCCNC(=O)C1=CN(C)C=CC1)c(C)n2C(=O)c1ccc(Cl)cc1	60 to 65
COc1ccc(-n2cnc3ccc(-c4nnc(NCc5cccc(F)c5)o4)cc32)cc1	164 to 166
CCCc1nc(C)cc(=O)n1CCOc1ccc(C=C2SC(=O)NC2=O)cc1	240 to 242
COc1ccc([C@H]2NC(SC)=N[C@H]2c2ccc(OC)cc2)cc1	132 to 134
CCCN(CCCCc1coc2c(OC)cccc12)C1COc2c(F)ccc(C(N)=O)c2C1 (stereo not given)	99 to 110
CCOC(=O)CC(=O)N1C(C(=O)OC(C)(C)C)CCCN1C(=O)OCc1ccccc1 (stereo not given)	45 to 47
COc1ccc2c(CC3=C(CC(=O)O)CCCC3=O)cccc2c1C(F)(F)F	69 to 71
Clc1cnc(N2CCNCC2)cn1	98 to 102
CCOC(=O)C(C(=O)OCC)c1csc(N)n1	99.5 to 100

Structure (SMILES)	melting point [°C]
CC(C)C[C@H](NC(=O)NCc1ccccc1)C(=O)N[C@@H](Cc1ccccc1)C(=O)CSCc1ccco1	95 to 97
COc1cccc(CO)c1OCc1ccccc1	58 to 60
COC(=O)COc1ccc(C(C)CNS(=O)(=O)c2ccccc2)cc1F (stereo not given)	112 to 113
NC1=NS(=O)N=C1NCCCOc1cc(CN2CCCCC2)ccn1 (stereo not given)	154 to 158
O=C1N(Cc2ccc(Br)cn2)c2ccccc2C12COc1cc3c(cc12)OCCO3 (stereo not given)	201 to 202
O=C(Nc1ccc(C2CCCCC2)cc1)c1ncccc1O	91 to 93
O=C(Oc1cc(CBr)ccc1F)c1ccccc1	180 to 182
CN1CCN(c2ccc3nc(-c4ccc(F)cc4)c(I)n3n2)CC1	180
O=C(Nc1cccc(-c2ccnc3c(C(=O)c4cccs4)cnn23)c1)c1c(F)cccc1F	159 to 160
COc1ccc(C2(C#N)CCC(CC(=O)O)CC2)c2c1OCCO2 (stereo not given)	149 to 150
CCOC(=O)C1=C(C)NC(C)=C(C(=O)OCC)C1c1ccccc1/C=C/C(=O)OC1CCCC1	182 to 184
O=C1Nc2ccc(-c3ccc(Cl)cc3)cc2C1=NO	236 to 237
CN1C(=O)[C@@H](NC(=O)OC(C)(C)C)CCc2ccccc21	132 to 134
Cc1nc2scc(C)n2c(=O)c1CCN1CCC(c2c[nH]c3ccccc23)CC1	275
C[C@]1(COc2ccc(N3CCN(C(=O)NCc4ccc(OC(F)(F)F)cc4)CC3)cc2)Cn2cc([N+](=O)[O-])nc2O1	166 to 168
Cc1cccc(C)c1N(CCn1ccnc1)C(=O)CCCc1cccnc1	104 to 106
CC(OC(=O)NCC1(CC(=O)O)CCCCC1)OC(=O)C(C)C (stereo not given)	63 to 64
Cc1c(F)cc(C(=O)OC(C)(C)C)cc1I	77 to 80
O=c1cc(CCN2CCC(c3c[nH]c4ccccc34)CC2)c2ccccc2[nH]1	259 to 260
CCOC(C)=NOc1nc(C(F)(F)F)cc(=O)n1-c1cc(Oc2ccccc2[N+](=O)[O-])c(Cl)cc1F	152 to 155
Cc1[nH]cnc1CSCCO	74 to 76
CCCCCCCCCCCCCCC(F)CC(NC(C)=O)(C(=O)OCC)C(=O)OCC (stereo not given)	71 to 73
Cn1c(C(F)(F)F)cc(=O)n(-c2cc(OCCOCCCl)c(Cl)cc2F)c1=O	191 to 193
CC(=O)N(C(=O)N(C)C)c1nnc(C(F)(F)F)s1	61 to 63
CCc1cccc(C)c1NC(=O)C(C)Br (stereo not given)	181 to 182

Structure (SMILES)	melting point [°C]
COc1ccc2c(c1)CCC1C2CCC2(C)C1CCC2N(C)CCC(C)C (stereo not given)	80 to 80.5
COCCOCCOCc1c(Br)c(Br)c(Br)c(Br)c1Br	83
Cc1nc(NC(=O)c2cnn3c(C(F)(F)F)cc(-c4ccc(C(F)(F)F)cc4)nc23)sc1S(=O)(=O)N1CCN(C)CC1	273
CSC1NC(=O)N(C2CCCCC2)C(=O)N1C (stereo not given)	135 to 137
CC(=O)c1cc(C(=O)c2ccccc2Cl)c(N)s1	190 to 191
COc1cc(CCNC(=O)Cc2ccc(Br)cc2)cc(OC)c1	86 to 88
CC(C)(C)c1ccc(/C=C/C(=O)Nc2ccc3c(c2)NCC3)cc1	153 to 167
CN1C(NCCCO)=NC(c2ccccc2)c2cc(Cl)ccc21 (stereo not given)	165 to 166
COc1cc(OC)nc(C(C#N)c2ccccc2[N+](=O)[O-])n1 (stereo not given)	88 to 89
Nc1nc(O)c2cc(CCc3ccc(C(=O)O)cc3)cnc2n1	> 300
CCc1cccc(C)c1NCc1nccc2c1nc(C)n2C	141 to 142
CCCOc1ccccc1-c1nc2nc(NC)nnc2c(=O)[nH]1	261 to 263
CCC1=Nc2ccc(S(C)(=O)=O)cc2C(=O)C1	283
COC(=O)c1cc(C2=CCCO2)c(C(F)(F)F)cc1NC(C)=O	120 to 125
C=CCOc1c(Cl)cc(-c2ccc(=O)[nH]n2)cc1Cl	214 to 215
CCn1nnn(CCN2CCC(COC)(N(OCc3ccccc3)C(C)=O)CC2)c1=O	140 to 141
N#Cc1ccc(OC[C@H](O)CO)cc1	63 to 65
COc1ccc(C(=O)NNC(C)=O)cc1	146 to 148
CCNC(=O)c1ccc(C2(C(N)=O)CN(C(=O)OC(C)(C)C)CCc3c2cc(CC)c(CC)c3Cl)cc1 (stereo not given)	89 to 95
COc1cccc(Nc2ccnc(Nc3cc(OC)c(OC)c(SC)c3)n2)c1	68 to 70
CCc1nc(C(C)(C)O)c(C(=O)OCc2oc(=O)oc2C)n1Cc1ccc(-c2ccccc2-c2nnnn2C(c2ccccc2)(c2ccccc2)c2ccccc2)cc1	145
COC(=O)c1ccc(OC)cc1OC(=S)N(C)C	117 to 120
CC1(C)CN(C2CC3(C)C(CCC4C5CCC(C(=O)CSC#N)C5(C)CC(=O)C43)CC2O)CCO1 (stereo not given)	197 to 198
CC1(C)Cc2c(ccc3c2C(c2cccc(-c4ccc(C(=O)O)cc4)c2)=NCC3(C)C)O1	286 to 291
O=C(CCN1CCN(c2cnc3ccccc3c2)CC1)c1csc2ccccc12	112 to 114
